Measured values as given in US20090226527A1, “Particulate-stabilized injectable pharmacutical compositions of posaconazole” (priority 2004, published 2009).
Values after ≈ are worked out from the molar mass of the structure shown. Read-outs that look alike come from different tables or passages of the source.

How the values were obtained:
[1] = Rising Multiple Dose Study: plasma pharmacokinetics, safety, relative bioavailability of POS IV vs POS oral suspension; assay type: in vivo, human
Procedure: A rising, multiple dose assessment of the safety, tolerability, and pharmacokinetics of intravenous Posaconazole in healthy subjects was also conducted. The pharmacokinetic objectives of the study were two-fold: first, to determine the single-dose and multiple-dose pharmacokinetic (PK) profiles of POS IV in healthy subjects; and second, to determine the relative bioavailability of POS IV vs POS oral suspension administered under fed conditions. The formulation used in this study is that of Example 8.
Plasma obtained from blood samples was analyzed for POS using a validated LC-MS/MS method. Plasma pharmacokinetic parameters were determined. Safety was assessed by ECGs, clinical laboratory tests, vital signs, and adverse event monitoring.

[2] = test system: aspergillosis; assay: Orally administered Posaconazole: plasma Cmax/Cavg by quartile and response rate for aspergillosis; assay type: in vivo, patients
Excerpt: (§1) In order to determine the target dosing for intravenous administration, it was necessary to determine a target range for mean Cavg and mean Cmax. Previous studies on orally administered Posaconazole are instructive in this regard.
(§2) At the same time, posaconazole has a long half-life and a large volume of distribution that results in sustained plasma levels and extensive penetration into body tissues with a likely accumulation in tissues. […] Thus, it can be inferred that posaconazole's long half-life and large volume of distribution results in sustained plasma and tissue levels allowing for safer and better tolerated pharmacokinetic behavior.

[3] = as above; assay type: in vivo, patients; conditions: human, plasma, po, 800 mg/day
Excerpt: as §1, §2

[4] = test system: infectious agents (strains tested); assay: organism not typed; assay type: cell-based

CCC([C@@H](C)O)n1ncn(-c2ccc(N3CCN(c4ccc(OC[C@@H]5CO[C@@](Cn6cncn6)(c6ccc(F)cc6F)C5)cc4)CC3)cc2)c1=O (stereo partly shown) [Posaconazole]
Dose proportionality of exposure (Cmax and AUC) ([1]; 100- to 400-mg range): approximately dose proportional | Safety and tolerability ([1]; healthy subjects, 100-400 mg): safe and well tolerated | Daily dosing needed to achieve steady-state ([1]; human, in vivo): 6 to 7 days | clearance ([1]; human, in vivo, Mean systemic clearance at steady-state): 90 to 93.3 mL/min | clearance ([1]; human, in vivo, Mean systemic clearance, single-dose administration on Day 1): 137 to 192 mL/min | half-life ([1]; human, in vivo, Single-dose half-life): 26 to 29 h | half-life ([1]; human, in vivo, plasma, read-out: Mean steady-state terminal half-life): 33 to 37 h | Response (response rate for aspergillosis) ([2]; Quartile 1): 24% | Plasma Cavg, mean ([2]; Quartile 1, n = 17): 134 ng/mL | Response (response rate for aspergillosis) ([2]; Quartile 2): 53% | Plasma Cavg, mean ([2]; Quartile 2, n = 17): 411 ng/mL | Response (response rate for aspergillosis) ([2]; Quartile 3): 53% | Plasma Cavg, mean ([2]; Quartile 3, n = 17): 719 ng/mL | Response (response rate for aspergillosis) ([2]; Quartile 4): 71% | Plasma Cavg, mean ([2]; Quartile 4, n = 16): 1250 ng/mL | Cmax ([3]; Quartile 1, n = 17): 142 ng/mL | Cmax ([3]; Quartile 2, n = 17): 467 ng/mL | Cmax ([3]; Quartile 3, n = 17): 852 ng/mL | Cmax ([3]; Quartile 4, n = 16): 1480 ng/mL | MIC ([4]; Absidia spp, read-out: Geometric Mean MIC): 0.177 µg/mL (≈ 0.253 µM) | MIC ([4]; Absidia spp, read-out: MIC[90]): 0.031 to 0.5 µg/mL (≈ 0.0442 to 0.713 µM) | MIC ([4]; Alternaria spp, read-out: Geometric Mean MIC): 0.101 µg/mL (≈ 0.144 µM) | MIC ([4]; Alternaria spp, read-out: MIC[90]): 0.25 µg/mL (≈ 0.357 µM) | MIC ([4]; Apophysomyces spp, read-out: Geometric Mean MIC): 0.34 µg/mL (≈ 0.485 µM) | MIC ([4]; Apophysomyces spp, read-out: MIC[90]): 0.031 to 4 µg/mL (≈ 0.0442 to 5.71 µM) | MIC ([4]; Arthroderma terrestre, Trichophyton terrestre, read-out: Geometric Mean MIC): 0.125 µg/mL (≈ 0.178 µM) | MIC ([4]; Arthroderma terrestre, Trichophyton terrestre, read-out: MIC[90]): 0.125 µg/mL (≈ 0.178 µM) | MIC ([4]; Aspergillus flavus, read-out: Geometric Mean MIC): 0.079 µg/mL (≈ 0.113 µM) | MIC ([4]; Aspergillus flavus, read-out: MIC[90]): 0.25 µg/mL (≈ 0.357 µM) | MIC ([4]; Aspergillus fumigatus, read-out: Geometric Mean MIC): 0.118 µg/mL (≈ 0.168 µM) | MIC ([4]; Aspergillus fumigatus, read-out: MIC[90]): 0.5 µg/mL (≈ 0.713 µM) | MIC ([4]; Aspergillus nidulans, read-out: Geometric Mean MIC): 0.055 µg/mL (≈ 0.0785 µM) | MIC ([4]; Aspergillus nidulans, read-out: MIC[90]): 0.25 µg/mL (≈ 0.357 µM) | MIC ([4]; Aspergillus niger, read-out: Geometric Mean MIC): 0.195 µg/mL (≈ 0.278 µM) | MIC ([4]; Aspergillus niger, read-out: MIC[90]): 0.5 µg/mL (≈ 0.713 µM) | MIC ([4]; Aspergillus sydowii, read-out: Geometric Mean MIC): 0.177 µg/mL (≈ 0.253 µM) | MIC ([4]; Aspergillus sydowii, read-out: MIC[90]): 0.031 to 0.5 µg/mL (≈ 0.0442 to 0.713 µM) | MIC ([4]; Aspergillus terreus, read-out: Geometric Mean MIC): 0.052 µg/mL (≈ 0.0742 µM) | MIC ([4]; Aspergillus terreus, read-out: MIC[90]): 0.25 µg/mL (≈ 0.357 µM) | MIC ([4]; Aspergillus ustus, read-out: Geometric Mean MIC): 1.64 µg/mL (≈ 2.34 µM) | MIC ([4]; Aspergillus ustus, read-out: MIC[90]): 0.25 to 8 µg/mL (≈ 0.357 to 11.4 µM) | MIC ([4]; Bipolaris spp, read-out: Geometric Mean MIC): 0.354 µg/mL (≈ 0.505 µM) | MIC ([4]; Bipolaris spp, read-out: MIC[90]): 0.125 to 1 µg/mL (≈ 0.178 to 1.43 µM) | MIC ([4]; Bjerkandera adusta, read-out: Geometric Mean MIC): 0.25 µg/mL (≈ 0.357 µM) | MIC ([4]; Bjerkandera adusta, read-out: MIC[90]): 0.25 µg/mL (≈ 0.357 µM) | MIC ([4]; Blastomyces dermatitidis, read-out: Geometric Mean MIC): 0.053 µg/mL (≈ 0.0756 µM) | MIC ([4]; Blastomyces dermatitidis, read-out: MIC[90]): 0.125 µg/mL (≈ 0.178 µM) | MIC ([4]; Candida albicans, read-out: Geometric Mean MIC): 0.037 µg/mL (≈ 0.0528 µM) | MIC ([4]; Candida albicans, read-out: MIC[90]): 0.25 µg/mL (≈ 0.357 µM) | MIC ([4]; Candida dubliniensis, read-out: Geometric Mean MIC): 0.062 µg/mL (≈ 0.0885 µM) | MIC ([4]; Candida dubliniensis, read-out: MIC[90]): 0.25 µg/mL (≈ 0.357 µM) | MIC ([4]; Candida tropicalis, read-out: Geometric Mean MIC): 0.081 µg/mL (≈ 0.116 µM) | MIC ([4]; Candida tropicalis, read-out: MIC[90]): 0.25 µg/mL (≈ 0.357 µM) | MIC ([4]; Clavispora lusitaniae, Candida lusitaniae, read-out: Geometric Mean MIC): 0.048 µg/mL (≈ 0.0685 µM) | MIC ([4]; Clavispora lusitaniae, Candida lusitaniae, read-out: MIC[90]): 0.125 µg/mL (≈ 0.178 µM) | MIC ([4]; Coccidioides immitis, read-out: Geometric Mean MIC, Coccidioides immitis): 0.304 µg/mL (≈ 0.434 µM) | MIC ([4]; Coccidioides immitis, read-out: MIC[90], Coccidioides immitis): 1 µg/mL (≈ 1.43 µM) | MIC ([4]; Cryptococcus neoformans, read-out: Geometric Mean MIC): 0.119 µg/mL (≈ 0.17 µM) | MIC ([4]; Cryptococcus neoformans, read-out: MIC[90]): 0.25 µg/mL (≈ 0.357 µM) | MIC ([4]; Curvularia spp, read-out: Geometric Mean MIC): 0.072 µg/mL (≈ 0.103 µM) | MIC ([4]; Curvularia spp, read-out: MIC[90]): 0.031 to 0.125 µg/mL (≈ 0.0442 to 0.178 µM) | MIC ([4]; Debaryomyces hansenii, Candida famata, read-out: Geometric Mean MIC): 0.125 µg/mL (≈ 0.178 µM) | MIC ([4]; Debaryomyces hansenii, Candida famata, read-out: MIC[90]): 0.5 µg/mL (≈ 0.713 µM) | MIC ([4]; Diutina rugosa, Candida rugosa, read-out: Geometric Mean MIC): 0.039 µg/mL (≈ 0.0557 µM) | MIC ([4]; Diutina rugosa, Candida rugosa, read-out: MIC[90]): 0.5 µg/mL (≈ 0.713 µM) | MIC ([4]; Dujonia zeylanoides, Candida zeylanoides, read-out: Geometric Mean MIC): 0.031 µg/mL (≈ 0.0442 µM) | MIC ([4]; Dujonia zeylanoides, Candida zeylanoides, read-out: MIC[90]): 0.008 to 0.25 µg/mL (≈ 0.0114 to 0.357 µM) | MIC ([4]; Epidermophyton floccosum, read-out: Geometric Mean MIC): 0.029 µg/mL (≈ 0.0414 µM) | MIC ([4]; Epidermophyton floccosum, read-out: MIC[90]): 0.125 µg/mL (≈ 0.178 µM) | MIC ([4]; Exophiala dermatidis, read-out: Geometric Mean MIC): 0.125 µg/mL (≈ 0.178 µM) | MIC ([4]; Exophiala dermatidis, read-out: MIC[90]): 0.125 µg/mL (≈ 0.178 µM) | MIC ([4]; Exophiala dermatitidis, Wangiella dermatitidis, read-out: Geometric Mean MIC): 0.088 µg/mL (≈ 0.126 µM) | MIC ([4]; Exophiala dermatitidis, Wangiella dermatitidis, read-out: MIC[90]): 0.063 to 0.125 µg/mL (≈ 0.0899 to 0.178 µM) | MIC ([4]; Exophiala jeanselmei, read-out: Geometric Mean MIC): 0.287 µg/mL (≈ 0.41 µM) | MIC ([4]; Exophiala jeanselmei, read-out: MIC[90]): 0.5 µg/mL (≈ 0.713 µM) | MIC ([4]; Exophiala moniliae, read-out: Geometric Mean MIC): 0.016 µg/mL (≈ 0.0228 µM)
